Consider four compounds from US20140220110A1, “REMOTE LOADING OF SPARINGLY WATER-SOLUBLE DRUGS INTO LIPOSOMES” (ZONEONE PHARMA, INC., priority 2013, published 2014).

Converted amounts (≈) assume the structure as drawn.

Data set [1] can be described thus: Remote loading of doxorubicin and 17-DMAG into ammonium sulfate liposomes with and without 25% DMSO. Format: physicochemical. Particulars: ammonium sulfate containing liposomes. The text has this: To test the integrity of the liposomes in 25% DMSO we attempted to remote load the water-soluble weak base drugs doxorubicin and 17-dimethylaminoethylamino-17-demethoxygeldanamycin (17-DMAG) and compared to the same loading without DMSO.

A short description of data set [2]: Remote loading of aripiprazole precipitate into liposomes. It is filed as physicochemical. On the procedure:
Liposomes (HSPC/Chol/PEG-DSPE 3/2/0.15 mol/mol/mol) containing 250 mM ammonium sulfate or 250 mM sodium sulfate were diluted in 1 mL of 50 mM citric acid, 10% (wt/wt) sucrose, pH 4.0 to a concentration of 6 mM phospholipid. […] Fine precipitates were immediately observed after the drug was added to both liposome samples. The samples were heated at 65° C. for 30 min, the cooled on ice. The samples were filtered through a 0.2 um polyethersulfone syringe filter to remove any drug precipitates, followed by purification on a Sephadex G25 column equilibrated with HBS, pH 6.5 to remove any soluble extraliposome drug. The turbid fraction was collected and analyzed for lipid and drug as described above.

The next data set is described as follows: Water solubility. It is filed as physicochemical.
The conditions of data set [3]: cited from earlier work.

`CO[C@H]1/C=C\C=C(/C)C(=O)NC2=CC(=O)C(NCCN(C)C)=C(C[C@@H](C)C[C@H](OC)[C@H](O)[C@@H](C)/C=C(\C)[C@@H]1OC(N)=O)C2=O` [Formulation 17-DMAG, 17-dimethylaminoethylamino-17-demethoxygeldanamycin]: the “% Efficiency compared to control of no DMSO” value in data set [1] came to 73.1 ± 1.4%.

With `O=C1CCc2ccc(OCCCCN3CCN(c4cccc(Cl)c4Cl)CC3)cc2N1` [aripiprazole], the “Output D/L” value in data set [2] ((NH4)2SO4 liposomes, input D/L 50 ug/umol) was 42.28 ± 0.49 µg/µmol; in data set [2] ((Na)2SO4 liposomes, input D/L 50 ug/umol) it was 0.86 ± 0.51 µg/µmol. The compound also showed a loading efficiency in data set [2] (drug introduced as SBCD complex (from Abilify), same concentration and loading conditions) of 68%. Further, in data set [2] (input D/L 50 ug/umol), the “Fold Increase NH4SO4/NaSO4” value worked out at 49.3. The solubility in water result in the data set “Water solubility” is listed as “very insoluble in water”.

On to `O=C(O)c1ccc(-n2nc(-c3ccccc3O)nc2-c2ccccc2O)cc1` [deferasirox], for which the water solubility in data set [3] was approximately 38 µg/mL (≈ 102 µM).

With `COc1cccc2c1C(=O)c1c(O)c3c(c(O)c1C2=O)C[C@@](O)(C(=O)CO)C[C@@H]3O[C@H]1C[C@H](N)[C@H](O)[C@H](C)O1` [doxorubicin], the “% Efficiency compared to control of no DMSO” value in data set [1] is listed as 92.7 ± 0.43%.
